The test system of experiment [1] is Candida albicans IFO 0583. Kind of experiment: Paper disc agar diffusion, growth inhibition zone, Candida albicans IFO 0583. It counts as cell-based. To be noted: 28° C., 8 mm disc. The method, then: (§1) Evaluation of the antifungal activities of the compound of formula (I) was conducted by the following method: a sheet of filter paper disc (manufactured by Toyo Seisakusho, 8 mm in diameter) soaked in a […] solution of a compound of formula (I) in methanol was placed on an agar plate containing various fungi, which was incubated at 28° C. for two days, and the diameter of the growth inhibition zone around the filter paper disc was measured. The following culture media were used: A: yeast nitrogen base agar medium (pH 7.0) B: Sabouraud agar medium
cpd. No. (Medium A, 28° C., two-day culture)
On the technique in general: A growth-free zone around the sample is the usual read-out of agar diffusion tests.

The test system of experiment [2] is Candida utilis IFO 0619. Kind of experiment: Paper disc agar diffusion, growth inhibition zone, Candida utilis IFO 0619. It counts as cell-based. The settings on record: Williopsis jadinii, IFO0619, 48 h; Table 4; medium A, 28° C., two days, 1000 μ/ml, 8 mm disc; read-out: Diameter of growth inhibition zone. The method, then:
as §1

Experiment [3] deals with Aspergillus niger IFO 4066. Kind of experiment: Paper disc agar diffusion, growth inhibition zone, Aspergillus niger IFO 4066. It counts as cell-based. To be noted: IFO4066, 48 h, Table 4, medium A, 28° C., two days, 1000 μ/ml, 8 mm disc, read-out: Diameter of growth inhibition zone. The method, then:
as §1

The subject of experiment [4] is Aspergillus fumigatus IFO 6344. The experiment is described as follows: Paper disc agar diffusion, growth inhibition zone, Aspergillus fumigatus IFO 6344. It counts as cell-based. To be noted: IFO6344, 48 h, Table 4, medium A, 28° C., two days, 1000 μ/ml, 8 mm disc, read-out: Diameter of growth inhibition zone. The method, then:
as §1

Experiment [5] concerns Cryptococcus neoformans IFO 0410. Kind of experiment: Paper disc agar diffusion, growth inhibition zone, Cryptococcus neoformans IFO 0410. It counts as cell-based. To be noted: IFO0410, 48 h, Table 4, medium A, 28° C., two days, 1000 μ/ml, 8 mm disc, read-out: Diameter of growth inhibition zone. The method, then: as §1
Experiment [6] deals with Trichophyton rubrum IFO 6467. The experiment is described as follows: Paper disc agar diffusion, growth inhibition zone, Trichophyton rubrum IFO 6467. It counts as cell-based. To be noted: IFO6467, 48 h, Table 4, medium B (Sabouraud agar), 28° C., two days, 1000 μ/ml, 8 mm disc, read-out: Diameter of growth inhibition zone. The method, then:
as §1

Experiment [7] relates to Trichophyton mentagrophytes IFO 7522. Kind of experiment: Paper disc agar diffusion, growth inhibition zone, Trichophyton mentagrophytes IFO 7522. It counts as cell-based. To be noted: IFO7522, 48 h, Table 4, medium B (Sabouraud agar), 28° C., two days, 1000 μ/ml, 8 mm disc, read-out: Diameter of growth inhibition zone. The method, then: as §1
The test system of experiment [8] is Microsporum gypseum IFO 6075. Kind of experiment: Paper disc agar diffusion, growth inhibition zone, Microsporum gypseum IFO 6075. The settings on record: Nannizzia gypsea, IFO6075, 48 h; Table 4; medium B (Sabouraud agar), 28° C., two days, 1000 μ/ml, 8 mm disc; read-out: Diameter of growth inhibition zone. It counts as cell-based. The method, then: as §1
Experiment [9] relates to Candida albicans. The experiment is described as follows: Protective effect against Candida albicans infection in mice. The settings on record: 168 h, minimum lethal dose of Candida albicans iv, drug once immediately after infection, survival 7 days after infection. It counts as in vivo, Crj:CDF1 mice. The text has this: Test Method: Five-week old Crj:CDF1 mice were inoculated with the minimum lethal dose of Candida albicans intravenously. The test drug was given once immediately after infection. The effectiveness of the drug was expressed in ED50 values calculated by the Reed and Muench method from the survival rate 7 days after infection.

Where [10] appears, read: 48 h, pH 7, Table 4, medium A (yeast nitrogen base agar, pH 7.0), two days, 1000 μ/ml in methanol, read-out: Diameter of growth inhibition zone.
Where [11] appears, read: Candida albicans, IFO0583, 48 h, Table 5, Medium A, two-day culture, 1000 μ/ml, read-out: Diameter of growth-inhibition zone.

SMILES strings stand for the structures. Where two headings read alike, the source gives them in different places.

What is called zone of inhibition is the extent of the growth-free halo in a diffusion test. In general, ED50 refers to the dose at which the effect has come halfway, by size or by number of responders. High values mean a need for a large dose, low ones an effect at a small dose.

Regarding `C[C@H]([C@](O)(Cn1cncn1)c1ccc(F)cc1F)S(=O)(=O)N1CCN(c2ccccc2)CC1` [Compound 23], the zone of inhibition at 1000 µg/mL was determined as 45 mm in experiment [1] (setting [10]); 45 mm in [2]; 20 mm in [3]; 22 mm in experiment [4]; 40 mm in experiment [5]; 40 mm in experiment [6]. Moreover, the zone of inhibition at 1000 µg/mL in experiment [7] amounted to 25 mm; in experiment [8], 30 mm. Also, it took a dose of 7.1 mg/kg to reach the 50% effect level in [9] (po) (ED50).
On to `C[C@H]([C@](O)(Cn1cncn1)c1ccc(F)cc1F)S(=O)(=O)N(C)C` [Compound 2, N,N-dimethyl-[(2R,3R)-3-(2,4-difluorophenyl)-3-hydroxy-4-(1H-1,2,4-triazol-1-yl) -2-butane]sulfonamide], for which the zone of inhibition at 1000 µg/mL is 25 mm in experiment [1] (setting [10]); 36 mm in [2]; 25 mm in experiment [3]; 25 mm in experiment [4]; 38 mm in experiment [5]; 35 mm in experiment [6]. The zone of inhibition at 1000 µg/mL in experiment [7] stood at 25 mm; in experiment [8], 22 mm. For the same compound, the ED50 in experiment [9] (po) and in [9] (sc) was 5 mg/kg throughout.
Turning to `CC(=C(Cn1cncn1)c1ccc(F)cc1F)S(=O)(=O)N(C)C` (single isomer, unassigned) [Compound 35, N,N-dimethyl-3-(2,4-difluorophenyl)-4-(1H-1,2,4-triazol-1-yl)-2-butene-2-sulfonamide], the “Diameter of growth-inhibition zone” value in experiment [1] (Table 5, Medium A, two-day culture, 1000 μ/ml) was 30 mm. This compound also registered an ED50 in experiment [9] (po) of 20 mg/kg.
In the case of `C[C@H]([C@](O)(Cn1cncn1)c1ccc(F)cc1F)S(=O)(=O)N1CCN(c2ccc(C(F)(F)F)cc2)CC1` [Compound 73, 4-[(2R,3R)-3-(2,4-difluorophenyl)-3-hydroxy-4-(1H-1,2,4-triazol-1-yl)-2-butanesulfonyl]-1-(4-trifluoromethylphenyl)piperazine], in experiment [1] (setting [11]), the zone of inhibition at 1000 µg/mL was 32 mm. The compound also returned an ED50 in experiment [9] (po) of 6.4 mg/kg.
For `C[C@H]([C@](O)(Cn1cncn1)c1ccc(F)cc1F)S(N)(=O)=O` [Compound 65, (2R,3R)-3-(2,4-difluorophenyl)-3-hydroxy-4-(1H-1,2,4-triazol-1-yl)-2-butanesulfonamide], in that order: 30 mm and 11.3 mg/kg.
For `C[C@@H](NS(=O)(=O)CC(F)(F)F)[C@](O)(Cn1cncn1)c1ccc(F)cc1F` [Compound 55], in that order: 35 mm and 2 mg/kg.
In the case of `C[C@@H](N(C)S(C)(=O)=O)[C@](O)(Cn1cncn1)c1ccc(F)cc1F` [Compound 53, N-[(2R,3R)-3-(2,4-difluorophenyl)-3-hydroxy-4-(1H-1,2,4-triazol-1-yl) -2-butyl]-N-methylmethanesulfornamide], in [1] (setting [11]), the zone of inhibition at 1000 µg/mL came to 40 mm. Also, the ED50 in [9] (po) came to 3.5 mg/kg.
For `C[C@H]([C@](O)(Cn1cncn1)c1ccc(F)cc1F)S(=O)(=O)NCc1ccccc1` [Compound 58, N-benzyl-[(2R,3R)-3-(2,4-difluorophenyl)-3-hydroxy-4-(1H-1,2,4-triazol-1-yl)-2-butane]sulfonamide], in that order: 40 mm and 8 mg/kg.
Regarding `C[C@@H](N(C)S(=O)(=O)CC(F)(F)F)[C@](O)(Cn1cncn1)c1ccc(F)cc1F` [Compound 54], the zone of inhibition at 1000 µg/mL in experiment [1] (setting [11]) was 40 mm. The same compound gave an ED50 in experiment [9] (po) of 3.5 mg/kg.
The like results for `C[C@H]([C@](O)(Cn1cncn1)c1ccc(F)cc1F)S(=O)(=O)N1CCN(c2nc(Cl)ncc2F)CC1` [Compound 91, 1-[(2R,3R)-3-(2,4-difluorophenyl)-3-hydroxy-4-(1H-1,2,4-triazol-1-yl)-2-butanesulfonyl]-4-(2-chloro-5-fluoropyrimidin-4-yl)piperazine] were, in that order, 50 mm and 11.3 mg/kg.
For `CCCCNS(=O)(=O)[C@H](C)[C@](O)(Cn1cncn1)c1ccc(F)cc1F` [Compound 4, N-butyl-[(2R,3R)-3-(2,4-difluorophenyl)-3-hydroxy-4-(1H-1,2,4-triazol-1-yl)-2-butane]sulfonamide], in that order: 40 mm and 7.07 mg/kg.
The like results for `C[C@H]([C@](O)(Cn1ccnc1)c1ccc(F)cc1F)S(=O)(=O)N(C)Cc1ccc(C(F)(F)F)cc1` [Compound 86, N-methyl-N-(4-trifluoromethylbenzyl)-[(2R,3R)-3-(2,4-difluorophenyl)-3-hydroxy-4-(1-imidazolyl)-2-butane]sulfonamide] were, in that order, 35 mm and 8 mg/kg.
Consider `C[C@@H](SNc1ccc(Br)cc1)[C@](O)(Cn1cncn1)c1ccc(F)cc1F` [Compound 21, N-(4-bromophenyl)-[(2R,3R)-3-(2,4-difluorophenyl)-3-hydroxy-4-(1H-1,2,4-triazol-1-yl)-2butane]sulfenamide], for which the zone of inhibition at 1000 µg/mL amounted to 43 mm in experiment [1] (setting [10]); 40 mm in experiment [2]; 20 mm in [3]; 30 mm in experiment [4]; 30 mm in experiment [5]; 45 mm in experiment [6]. For the same compound, the values for the zone of inhibition at 1000 µg/mL in [7] and in experiment [8] were 25 mm and 24 mm, respectively.
Turning to `CCNS(=O)(=O)[C@H](C)[C@](O)(Cn1cncn1)c1ccc(F)cc1F` [Compound 14, N-ethyl-[(2R,3R)-3-(2,4-difluorophenyl)-3-hydroxy-4-(1H-1,2,4-triazol-1-yl)-2-butane]sulfonamide], the zone of inhibition at 1000 µg/mL in [1] (setting [11]) stood at 38 mm. Also, the 50% effect level in experiment [9] (po) (ED50) was put at a dose of 5 mg/kg.
